In ChEMBL document CHEMBL6109129, “Discovery of Conformationally Constrained Dihydro Benzo-Indole Derivatives as Metallo-β-Lactamase Inhibitors to Tackle Multidrug-Resistant Bacterial Infections” (J Med Chem, 2025):
Converted amounts (≈) assume the structure as drawn. The source made the active and inactive calls. No cut-off for these calls is given here.

Tests used:
[1] = target: Metallo-beta-lactamase type 2 (Bacteria, UniProt C7C422); assay: Inhibition of N-terminal truncated NDM1 (1 to 49N residues) (unknown origin) extracted from Escherichia coli BL21(DE3) cells using FC5 as substrate preincubated for 10 mins followed by substrate addition and measured immediately by fluorescence based analysis
[2] = Inhibition of IMP-1 (unknown origin) using FC5 as substrate preincubated for 10 mins followed by substrate addition and measured immediately by fluorescence based analysis; parameters: species or system Bacteria
[3] = Inhibition of VIM-1 (unknown origin) using FC5 as substrate preincubated for 10 mins followed by substrate addition and measured immediately by fluorescence based analysis; parameters: species or system Bacteria
Klebsiella pneumoniae [4] = assay: Antibacterial activity against carbapenem-resistant Klebsiella pneumoniae 571278 assessed as reduction in microbial growth measured after 16 to 18 hrs by microbial dilution method; assay type: functional; details: time 16-18 hrs
Escherichia coli [5] = assay: Antibacterial activity against carbapenem-resistant Escherichia coli BAA-2471 assessed as reduction in microbial growth measured after 16 to 18 hrs by microbial dilution method; assay type: functional; details: time 16-18 hrs
Enterobacter cloacae = assay: Antibacterial activity against carbapenem-resistant Enterobacter cloacae BAA-2468 assessed as reduction in microbial growth measured after 16 to 18 hrs by microbial dilution method; assay type: functional; details: time 16-18 hrs
Klebsiella pneumoniae [6] = assay: Antibacterial activity against carbapenem-resistant Klebsiella pneumoniae 565345 assessed as reduction in microbial growth measured after 16 to 18 hrs by microbial dilution method; assay type: functional; details: time 16-18 hrs
Escherichia coli [7] = assay: Antibacterial activity against carbapenem-resistant Escherichia coli BAA-2469 assessed as reduction in microbial growth measured after 16 to 18 hrs by microbial dilution method; assay type: functional; details: time 16-18 hrs
[8] = tested on: Klebsiella pneumoniae subsp. pneumoniae; assay: Antibacterial activity against carbapenem-resistant Klebsiella pneumoniae subsp. pneumoniae BAA-2472 assessed as reduction in microbial growth measured after 16 to 18 hrs by microbial dilution method; assay type: functional; details: time 16-18 hrs
Escherichia coli [9] = assay: microbe, parasite or virus in culture; details: 541588
Description: Antibacterial activity against carbapenem-resistant Escherichia coli 541588 assessed as reduction in microbial growth measured after 16 to 18 hrs by microbial dilution method

Escherichia coli [10] = assay: microbe, parasite or virus in culture; details: 567975
Description: Antibacterial activity against carbapenem-resistant Escherichia coli 567975 assessed as reduction in microbial growth measured after 16 to 18 hrs by microbial dilution method

Escherichia coli [11] = assay: Antibacterial activity against carbapenem-resistant Escherichia coli 571307 assessed as reduction in microbial growth measured after 16 to 18 hrs by microbial dilution method; assay type: functional; details: time 16-18 hrs
Klebsiella pneumoniae [12] = assay: Antibacterial activity against carbapenem-resistant Klebsiella pneumoniae 552439 assessed as reduction in microbial growth measured after 16 to 18 hrs by microbial dilution method; assay type: functional; details: time 16-18 hrs
Escherichia coli [13] = assay: microbe, parasite or virus in culture; details: 565988
Description: Antibacterial activity against carbapenem-resistant Escherichia coli 565988 assessed as reduction in microbial growth measured after 16 to 18 hrs by microbial dilution method

[14] = tested on: Klebsiella pneumoniae subsp. pneumoniae; assay: Antibacterial activity against carbapenem-resistant Klebsiella pneumoniae subsp. pneumoniae BAA-2470 assessed as reduction in microbial growth measured after 16 to 18 hrs by microbial dilution method; assay type: functional; details: time 16-18 hrs
Klebsiella pneumoniae [15] = assay: Antibacterial activity against carbapenem-resistant Klebsiella pneumoniae BAA-2473 assessed as reduction in microbial growth measured after 16 to 18 hrs by microbial dilution method; assay type: functional; details: time 16-18 hrs
Klebsiella pneumoniae [16] = assay: Antibacterial activity against carbapenem-resistant Klebsiella pneumoniae 538961 assessed as reduction in microbial growth measured after 16 to 18 hrs by microbial dilution method; assay type: functional; details: time 16-18 hrs
Klebsiella pneumoniae [17] = assay: Anti-infective activity against carbapenem-resistant Klebsiella pneumoniae ATCC BAA 2146 expressing NDM-1 infected in neutropenic female BALB/c mouse deep thigh infection model assessed as reduction in bacterial count at 20 mg/kg, sc pre-infected with bacteria for 2 hrs followed by compound addition and measured after 26 hrs; assay type: functional
[18] = target: Metallo-beta-lactamase type 2 (Bacteria) (UniProt C7C422); assay: Induction of thermal stabilization of NDM-1 (unknown origin) assessed as melting temperature at 12.5 uM by differential scanning fluorimetry analysis
Klebsiella pneumoniae [19] = assay: Synergistic antibacterial activity against Klebsiella pneumoniae ATCC BAA 2146 expressing NDM-1 measured after 16 to 18 hrs in presence of imipenem by microbial dilution method; assay type: functional, organism-based; details: time 16-18 hrs
Klebsiella pneumoniae [20] = assay: Synergistic antibacterial activity against Klebsiella pneumoniae ATCC BAA 2146 expressing NDM-1 measured after 16 to 18 hrs in presence of meropenem by microbial dilution method; assay type: functional, organism-based; details: time 16-18 hrs
[21] = target: Metallo-beta-lactamase type 2 (Bacteria) (UniProt C7C422); assay: Induction of thermal stabilization of NDM-1 (unknown origin) assessed as increase in melting temperature by differential scanning fluorimetry analysis; details: dose 3.12-50 µM
[22] = target: Metallo-beta-lactamase type 2 (Bacteria) (UniProt C7C422); assay: Induction of thermal stabilization of NDM-1 (unknown origin) assessed as melting temperature at 25 uM by differential scanning fluorimetry analysis
[23] = target: Metallo-beta-lactamase type 2 (Bacteria) (UniProt C7C422); assay: Induction of thermal stabilization of NDM-1 (unknown origin) assessed as melting temperature at 50 uM by differential scanning fluorimetry analysis
[24] = target: Metallo-beta-lactamase type 2 (Bacteria) (UniProt C7C422); assay: Induction of thermal stabilization of NDM-1 (unknown origin) assessed as melting temperature at 6.25 uM by differential scanning fluorimetry analysis
[25] = target: Metallo-beta-lactamase type 2 (Bacteria) (UniProt C7C422); assay: Induction of thermal stabilization of NDM-1 (unknown origin) assessed as melting temperature at 3.12 uM by differential scanning fluorimetry analysis

Metallo-beta-lactamase type 2, sequence (C7C422 whole entry, the tested form may be a part): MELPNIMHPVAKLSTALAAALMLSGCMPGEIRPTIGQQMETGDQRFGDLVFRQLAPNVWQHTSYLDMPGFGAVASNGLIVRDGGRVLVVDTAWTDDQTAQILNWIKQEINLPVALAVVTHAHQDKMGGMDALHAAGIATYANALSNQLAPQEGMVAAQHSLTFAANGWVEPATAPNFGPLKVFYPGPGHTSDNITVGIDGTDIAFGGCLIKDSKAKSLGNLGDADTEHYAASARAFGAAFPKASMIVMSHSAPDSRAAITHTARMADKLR
Metallo-beta-lactamase type 2 (Bacteria), sequence (C7C422 whole entry): as the sequence (C7C422 whole entry, the tested form may be a part) above

SMILES	IC50 [1] [nM]	IC50 [2] [nM]	IC50 [3] [nM]	further results
O=C(O)c1[nH]c2c(c1-c1ccc(F)c(F)c1)CCc1ccccc1-2	2.9	6400	1100	
COc1ccc(F)cc1-c1c(C(=O)O)[nH]c2c1CCc1ccccc1-2	7.5	380	268	
Cc1cc(C(=O)O)[nH]c1-c1ccccc1	10600	44000	96000	
C[C@@H](O)[C@H]1C(=O)N2C(C(=O)O)=C(S[C@@H]3CN[C@H](C(=O)N(C)C)C3)[C@H](C)[C@H]12 [MEROPENEM]				MIC (Klebsiella pneumoniae [4]): 64 µg/mL; MIC (Escherichia coli [5]): > 64 µg/mL; MIC (Enterobacter cloacae): > 64 µg/mL; MIC (Klebsiella pneumoniae [6]): 64 µg/mL; MIC (Escherichia coli [7]): 64 µg/mL; MIC [8]: > 64 µg/mL; MIC (Escherichia coli [9]): 64 µg/mL (≈ 167 µM); MIC (Escherichia coli [10]): 64 µg/mL (≈ 167 µM); MIC (Escherichia coli [11]): 64 µg/mL; MIC (Klebsiella pneumoniae [12]): > 64 µg/mL; MIC (Escherichia coli [13]): 64 µg/mL (≈ 167 µM); MIC [14]: 32 µg/mL; MIC (Klebsiella pneumoniae [15]): > 64 µg/mL; MIC (Klebsiella pneumoniae [16]): > 64 µg/mL
O=C(O)c1[nH]c2c(c1-c1cccc(Cl)c1Cl)CCc1ccccc1-2	15	22000		
O=C(O)c1[nH]c2c(c1-c1ccncc1)CCc1ccccc1-2	71	14000	2600	
O=C(O)c1[nH]c2c(c1-c1ccc(Cl)cc1)CCc1ccccc1-2	3.1	2100	1700	
O=C(O)c1[nH]c2c(c1-c1cccc(F)c1)CCc1ccccc1-2	8.1	3000	408	
Cc1cc(C)cc(-c2c(C(=O)O)[nH]c3c2CCc2ccccc2-3)c1	4.7	1200	330	
O=C(O)c1ccccn1 [2-PICOLINIC ACID]	13700	> 200000	> 200000	
COc1cc(F)ccc1-c1c(C(=O)O)[nH]c2c1CCc1ccccc1-2	23.6	1700	580	
Cc1cc(Cl)cc(-c2c(C(=O)O)[nH]c3c2CCc2ccccc2-3)c1		320	557	
O=C(O)c1[nH]c2c(c1-c1cccc(F)c1F)CCc1ccccc1-2	268	2400	1900	
O=C(O)c1[nH]c2c(c1-c1cc(F)cc(F)c1)CCc1ccccc1-2	47	5600	581	
O=C(O)c1[nH]c2c(c1-c1cccc(Cl)c1)CCc1ccccc1-2	2.5	350	468	
O=C(O)c1[nH]c2c(c1-c1ccccc1F)CCc1ccccc1-2	58	2300	613	
O=C(O)c1[nH]c2c(c1-c1ccc(Cl)cc1Cl)CCc1ccccc1-2	2	9800	427	

SMILES	IC50 [1] [nM]	IC50 [2] [nM]	IC50 [3] [nM]	further results
CC(C)(C)c1ccc(-c2c(C(=O)O)[nH]c3c2CCc2ccccc2-3)cc1	15	8500	797	
COc1ccc(-c2c(C(=O)O)[nH]c3c2CCc2ccccc2-3)cc1	905		34000	
O=C(O)c1[nH]c2c(c1-c1ccccc1Cl)CCc1ccccc1-2	3.1	990	217	
NCCN[C@H]1CC[C@H](CC(=O)N[C@H]2Cc3cccc(C(=O)O)c3OB2O)CC1		38000	104	
C[C@@H](O)[C@H]1C(=O)N2C(C(=O)O)=C(SCCNC=N)C[C@H]12 [IMIPENEM ANHYDROUS]				MIC (Klebsiella pneumoniae [4]): 16 µg/mL; MIC (Escherichia coli [5]): 64 µg/mL; MIC (Enterobacter cloacae): > 64 µg/mL; MIC (Klebsiella pneumoniae [6]): 32 µg/mL; MIC (Escherichia coli [7]): 64 µg/mL; MIC [8]: > 64 µg/mL; MIC (Escherichia coli [9]): 8 µg/mL (≈ 26.7 µM); MIC (Escherichia coli [10]): 16 µg/mL (≈ 53.4 µM); MIC (Escherichia coli [11]): 32 µg/mL; MIC (Klebsiella pneumoniae [12]): 32 µg/mL; MIC (Escherichia coli [13]): 8 µg/mL (≈ 26.7 µM); MIC [14]: 16 µg/mL; MIC (Klebsiella pneumoniae [15]): > 64 µg/mL; MIC (Klebsiella pneumoniae [16]): 64 µg/mL; Activity (Klebsiella pneumoniae [17]): ~1.15 log10CFU/ml
COc1cc(F)cc(-c2c(C(=O)O)[nH]c3c2CCc2ccccc2-3)c1	6.8	15000	3500	
O=C(O)c1[nH]c2c(c1-c1cncc(F)c1)CCc1ccccc1-2	62	4100	2100	
O=C(O)c1[nH]c2c(c1-c1cncc(Cl)c1)CCc1ccccc1-2	2.3	1500	197	
COc1cc(Cl)cc(-c2c(C(=O)O)[nH]c3c2CCc2ccccc2-3)c1		303	438	
O=C(O)c1[nH]c2c(c1-c1cc(Cl)c(Cl)c(Cl)c1)CCc1ccccc1-2		1200	2200	
COc1ccccc1-c1c(C(=O)O)[nH]c2c1CCc1ccccc1-2	188	3000	1000	
COc1cc(OC)cc(-c2c(C(=O)O)[nH]c3c2CCc2ccccc2-3)c1	5	914	308	
O=C(O)c1cc2c([nH]1)-c1ccccc1CC2	8200	23000	7000	
O=C(O)c1[nH]c2c(c1-c1cc(Cl)cc(Cl)c1)CCc1ccccc1-2	8	428	34	Tm [18]: 8 °C; Activity (Klebsiella pneumoniae [19]): Active; Activity (Klebsiella pneumoniae [20]): Active; Activity [21]: Active; Tm [22]: 11 °C; Tm [23]: 14 °C; ΔTm [24]: 1 °C
Cc1ccc(-c2c(C(=O)O)[nH]c3c2CCc2ccccc2-3)c(F)c1	7.7	4600	1500	
O=C(O)c1[nH]c2c(c1-c1ccccc1)CCc1ccccc1-2	111	8500	3700	
O=C(O)c1[nH]c2c(c1-c1cc(F)cc(Cl)c1)CCc1ccccc1-2	1.9	149	48	Tm [18]: 15 °C; Activity (Klebsiella pneumoniae [19]): Active; Activity (Klebsiella pneumoniae [20]): Active; Activity [21]: Active; Tm [25]: 9 °C; Tm [22]: 16 °C; Tm [23]: 17 °C; ΔTm [24]: 13 °C
